Experimental data taken from the NIST ThermoML archive (doi:10.1016/j.jct.2018.06.015).

Experiment: xn = mol fraction of the nth substance listed
Conditions: 100 kPa, Liquid; for speed of sound: Frequency=3 MHz, Single path-length method; for mass density: Vibrating tube method

CCCCOCCOCCO [3,6-dioxa-1-decanol] + CCCCCCCCCCO
Conditions	mass density, 293.15 K [kg/m3]	mass density, 298.15 K [kg/m3]	speed of sound, 293.15 K [m/s]	speed of sound, 298.15 K [m/s]	speed of sound, 303.15 K [m/s]
x1 = 0.0523	835.331	831.923	1393.8	1376.5	1359.8
x1 = 0.102	840.692	837.244	1391.2	1374.1	1357.4
x1 = 0.1579	846.823	843.333	1388.7	1371.5	1354.9
x1 = 0.207	852.21	848.697	1386.6	1369.3	1352.7
x1 = 0.2513	857.155	853.609	1385	1367.4	1350.8
x1 = 0.3099	863.89	860.297	1382.7	1365.1	1348.6
x1 = 0.4046	875.017	871.358	1379.6	1362.3	1345.7
x1 = 0.5087	887.59	883.854	1376.9	1359.7	1343.1
x1 = 0.6073	899.873	896.063	1374.5	1358.4	1341.8
x1 = 0.7051	912.356	908.464	1373.9	1357.8	1341.3
x1 = 0.7952	924.132	920.17	1373.4	1357.9	1341.4
x1 = 0.8515	931.68	927.667	1373.4	1358.6	1342.2
x1 = 0.9006	938.376	934.318	1374.5	1359.6	1343.1
x1 = 0.9379	943.482	939.393	1374.9	1360.6	1344.1
x1 = 1	952.288	948.1	1378.2	1361.3	1344.5
